From patent US20260217761A1, “ANTIMICROBIAL PEPTIDE RICH IN TRYPTOPHAN AND HAVING SELF-ASSEMBLY PROPERTIES, AND USE THEREOF” (NANOQURE BIOTECH (SHENZHEN) CO., LTD., priority 2022, published 2026)
Converted amounts (≈) assume the structure as drawn. “And” between values parts separate entries of the source, which are not always exact repeats. Equal entries are not always repeated. Where two headings read alike, the source gives them in different places. Residues, ends and D or L forms follow the SMILES beside them. No end group written: not given here.

Tests used:
[1] = test system: various bacteria; test: MIC against various bacteria (broad-spectrum antimicrobial activity); type: cell-based
Method: • A. The antimicrobial peptide was prepared into a certain stock solution for use. 0.01% acetic acid (containing 0.2% BSA) was used as the diluent, and a series of gradient antimicrobial peptide solutions were prepared sequentially by a two-fold dilution method. • B. 100 μL of the above-mentioned antimicrobial peptide stock solution was taken and placed in a 96-well cell culture plate. Then, an equal volume of the test bacterial solution (approximately 10^5 cells/mL) was added to each well. A positive control (containing the bacterial solution but no antimicrobial peptide) and a negative control (containing neither bacterial solution nor the peptide) were included, respectively. The test bacterial species include Pseudomonas aeruginosa (Pseudomonas aeruginosa PL1, Pseudomonas aeruginosa SP1), Staphylococcus aureus (Staphylococcus aureus 544, Staphylococcus aureus 103), Escherichia coli (Escherichia coli 729, Escherichia coli 112), Klebsiella Pneumoniae (Klebsiella Pneumoniae 106, Klebsiella Pneumoniae 727), Streptococcus pneumonia 383, Acinetobacter baumannii (Acinetobacter baumannii 946, Acinetobacter baumannii 780) (FIG. 1), or Pseudomonas aeruginosa (Pseudomonas aeruginosa PAO1), Staphylococcus aureus (Staphylococcus aureus SP1), and a mixed solution of the above two bacteria (FIG. 2). • C. The culture plate was placed in a constant temperature incubator at 37° C. for 20 h. The minimum inhibitory concentration is determined as the condition where no turbidity is observed at the bottom of the well with naked eyes.
• A. The polypeptide Z4 composed entirely of dextrorotatory amino acids is called the dextrorotatory isomer of polypeptide Z4. The polypeptide Z4-D was prepared into a certain stock solution for use. […] The minimum inhibitory concentration is determined as the condition where no turbidity is observed at the bottom of the well with naked eyes.

[2] = test system: mixed bacterial solution of P. aeruginosa PAO1 and S. aureus SP1; type: cell-based
Method: After ultrasonic treatment of polypeptide Z4 and polypeptide Z4-D for 30 min, they were placed at room temperature for 2 h to promote their self-assembly. Subsequently, proteinase K with a final concentration of 0.2 g/mL was mixed with the polypeptide solution (final concentration of 640 μM) and incubated at 37° C. for 0, 30, 60, 90 or 120 min respectively. Then, according to the scheme described in Example 2, the MICs of the polypeptides against the mixed bacterial solution of P. aeruginosa PAO1 and S. aureus SP1 under different treatment conditions were determined.

[3] = test system: P. aeruginosa; test: Killing curve (bactericidal activity) against P. aeruginosa; type: cell-based, Pseudomonas aeruginosa
Method: (§1) • A. To determine the bactericidal ability of polypeptide Z4, Pseudomonas aeruginosa and Staphylococcus aureus were suspended in PBS until OD600 nm=0.4, then diluted 1000 times with fresh PBS and mixed in equal volumes. Polypeptide Z4 was added to the bacterial suspension at concentrations of 1×MIC and 2×MIC. […] After incubation at 37° C. for 18 h, the single colonies of the microorganisms were counted. The experiment was repeated 3 times and the average value was calculated.

[4] = test system: S. aureus; test: Killing curve (bactericidal activity) against S. aureus; type: cell-based, Staphylococcus aureus
Method: as §1

[5] = test system: mixed biofilm of P. aeruginosa and S. aureus; test: Anti-biofilm activity on formed mixed biofilm (crystal violet); type: cell-based; conditions: for removal effect on the formed biofilm: 3 h
Method: • B. To investigate the anti-biofilm activity of polypeptide Z4, P. aeruginosa and S. aureus were grown overnight at 37° C. in tryptic soy broth medium until the logarithmic phase, and then diluted to 1×10^7 CFU/mL and 1×10^6 CFU/mL respectively, and mixed in equal amounts to prepare a mixed bacterial culture. Subsequently, 100 μL of the mixed bacterial suspension was incubated at 37° C. for 24 h to obtain a mixed biofilm. Then, antimicrobial peptides with a final concentration of 2-32 μM were added to a 96-well plate. After incubation at 37° C. for 3 h, the medium was discarded, and the 96-well plate was washed three times with PBS (pH=7.2). After drying at room temperature, 200 μL/well of […] crystal violet staining solution was added to the plate. After incubation at 37° C. for 30 minutes, it was rinsed three times with PBS. After air drying at room temperature, 200 μL/well of 95% ethanol was added and incubated at 37° C. for 30 min, and the absorbance was measured at 595 nm. A total of 3 experiments were set up, and each experiment was repeated 3 times.

[6] = Self-assembly observed by scanning electron microscopy (SEM); type: physicochemical; conditions: in phosphate-buffered saline (PBS) (pH=7.2)
Method: Without being bound by any theory, it is deduced that the reason why WW++W++WW has better self-assembly activity and MIC than +++WWW+++ is based on the WW at both ends of the peptide, rather than the number of positively charged amino acids (K and/or R). • B. Observation of polypeptide Z4 by scanning electron microscopy (SEM): To prepare SEM samples for observing the self-assembly of the polypeptide, 10 μL of the polypeptide was placed on tin foil that had been ultrasonically treated for 30 min.
After drying, the samples were sputter-coated with gold. All samples were observed using Gimini SEM 500.

[7] = test system: P. aeruginosa in the catheter biofilm; test: In vivo bactericidal activity in the catheter biofilm, P. aeruginosa; conditions: mice, versus PBS control
[8] = test system: IL-6; test: IL-6 content in the skin tissue at the infected site; type: in vivo; conditions: mice
[9] = test system: mixed bacterial solution of Pseudomonas aeruginosa and Staphylococcus aureus; type: cell-based, Pseudomonas aeruginosa PAO1 and Staphylococcus aureus SP1
Method: • A. The antimicrobial peptide was prepared into a certain stock solution for use. 0.01% acetic acid (containing 0.2% BSA) was used as the diluent, and a series of gradient antimicrobial peptide solutions were prepared sequentially by a two-fold dilution method. • B. 100 μL of the above-mentioned antimicrobial peptide stock solution was taken and placed in a 96-well cell culture plate. Then, an equal volume of the test bacterial solution (approximately 10^5 cells/mL) was added to each well. A positive control (containing the bacterial solution but no antimicrobial peptide) and a negative control (containing neither bacterial solution nor the peptide) were included, respectively. […] The culture plate was placed in a constant temperature incubator at 37° C. for 20 h. The minimum inhibitory concentration is determined as the condition where no turbidity is observed at the bottom of the well with naked eyes.

[10] = test system: S. aureus in the catheter biofilm; test: In vivo bactericidal activity in the catheter biofilm, S. aureus; conditions: mice, versus PBS control
[11] = test system: inflammatory cells; test: Inflammatory cells in sections of skin tissue at the infected site; type: in vivo; conditions: mice, versus PBS control

KWKWWWKWK-NH2 [Z1, centrally symmetric 9-peptide of tryptophan and lysine]
broad-spectrum antimicrobial activity [1]: good broad-spectrum antimicrobial activity

NCCCC[C@H](NC(=O)[C@H](CCCCN)NC(=O)[C@H](Cc1c[nH]c2ccccc12)NC(=O)[C@H](CCCCN)NC(=O)[C@H](CCCCN)NC(=O)[C@H](Cc1c[nH]c2ccccc12)NC(=O)[C@@H](N)Cc1c[nH]c2ccccc12)C(=O)N[C@@H](Cc1c[nH]c2ccccc12)C(=O)N[C@@H](Cc1c[nH]c2ccccc12)C(N)=O [Z4, WWKKWKKWW-NH2] (H-WWKKWKKWW-NH2; N-terminus assumed)
MIC after proteinase K treatment ([2]; 2 h): 8 µM (≈ 11.7 µg/mL)
decrease of antimicrobial activity due to hydrolysis by proteinase K ([2]; proteinase K treatment, 90 minutes): 50%
MIC before increase under proteinase K treatment ([2]; proteinase K treatment, before 90 minutes): 4 µM (≈ 5.84 µg/mL)
time within which all P. aeruginosa were killed ([3]; 1×MIC (4 μM)): ≤ 60 min
survival number of P. aeruginosa ([3]; 1×MIC, 0 min): 134000 CFU/mL and 112000 CFU/mL and 104000 CFU/mL
survival number of P. aeruginosa ([3]; 1×MIC, 60 min): 0 CFU/mL
survival number of P. aeruginosa ([3]; 1×MIC, 120 min): 0 CFU/mL
survival number of P. aeruginosa ([3]; 1×MIC, 180 min): 0 CFU/mL
survival number of P. aeruginosa ([3]; 1×MIC, 240 min): 0 CFU/mL
survival number of P. aeruginosa ([3]; 1×MIC, 300 min): 0 CFU/mL
time within which all P. aeruginosa were killed ([3]; 2×MIC (8 μM)): ≤ 30 min
survival number of P. aeruginosa ([3]; 2×MIC, 0 min): 186000 CFU/mL and 136000 CFU/mL and 132000 CFU/mL
survival number of P. aeruginosa ([3]; 2×MIC, 30 min): 0 CFU/mL
survival number of P. aeruginosa ([3]; 2×MIC, 60 min): 0 CFU/mL
survival number of P. aeruginosa ([3]; 2×MIC, 120 min): 0 CFU/mL
survival number of P. aeruginosa ([3]; 2×MIC, 180 min): 0 CFU/mL
survival number of P. aeruginosa ([3]; 2×MIC, 240 min): 0 CFU/mL
bactericidal rate against P. aeruginosa compared with gentamicin ([3]; compared with gentamicin): faster bactericidal rate
time within which all S. aureus were killed ([4]; 1×MIC (4 μM)): ≤ 360 min
survival number of S. aureus ([4]; 1×MIC, 300 min): 2000 CFU/mL
survival number of S. aureus ([4]; 1×MIC, 360 min): 0 CFU/mL
time within which all S. aureus were killed ([4]; 2×MIC (8 μM)): ≤ 360 min
survival number of S. aureus ([4]; 2×MIC, 360 min): 0 CFU/mL
bactericidal rate against S. aureus compared with gentamicin ([4]; compared with gentamicin): no significant difference in the bactericidal rate
removal effect on the formed biofilm ([5]; concentration 4 μM): 32.16% and 56.39% and 56.88%
removal effect on the formed biofilm ([5]; concentration 8 μM): 28.16% and 29.51% and 42.64%
anti-biofilm activity ([5]; mixed biofilm): good and direct anti-biofilm activity
concentration at which more than 50% of biofilm is removed ([5]; mixed biofilm): 8 μm
concentration at which more than 50% of the biofilm is removed ([5]; mixed biofilm): 8 µM
broad-spectrum antimicrobial activity [1]: good broad-spectrum antimicrobial activity
average particle size of self-assembled nanomicelle [6]: 174.62 nanometers
number of Pseudomonas aeruginosa colonized in the catheter [7]: significantly reduced
IL-6 content in the skin tissue at the infected site ([8]; Biofilm + Z4): 110.6228 pg/g and 89.73 pg/g and 91.09 pg/g and 95.94 pg/g and 137.9124 pg/g and 127.2606 pg/g and 88.31 pg/g and 94.64 pg/g
level of IL-6 in the skin tissue ([8]; versus PBS control): reduced
minimum inhibitory concentration (MIC) [9]: 4 µM (≈ 5.84 µg/mL)
minimum inhibitory concentration (MIC) ([9]; mixed bacterial solution of Pseudomonas aeruginosa and Staphylococcus aureus): 4 µM (≈ 5.84 µg/mL)
number of Staphylococcus aureus colonized in the catheter [10]: significantly reduced
number of infiltrated inflammatory cells [11]: reduced

Gentamicin
survival number of P. aeruginosa ([3]; 1×MIC, 0 min): 140000 CFU/mL and 126000 CFU/mL and 130000 CFU/mL and 122000 CFU/mL
survival number of P. aeruginosa ([3]; 1×MIC, 15 min): 116000 CFU/mL and 120000 CFU/mL and 140000 CFU/mL and 108000 CFU/mL
survival number of P. aeruginosa ([3]; 1×MIC, 30 min): 104000 CFU/mL and 126000 CFU/mL and 110000 CFU/mL
survival number of P. aeruginosa ([3]; 1×MIC, 60 min): 112000 CFU/mL and 92000 CFU/mL and 106000 CFU/mL and 110000 CFU/mL
survival number of P. aeruginosa ([3]; 1×MIC, 120 min): 30000 CFU/mL and 52000 CFU/mL and 54000 CFU/mL
survival number of P. aeruginosa ([3]; 1×MIC, 300 min): 0 CFU/mL
survival number of P. aeruginosa ([3]; 2×MIC, 0 min): 142000 CFU/mL and 134000 CFU/mL and 122000 CFU/mL and 106000 CFU/mL
survival number of P. aeruginosa ([3]; 2×MIC, 15 min): 166000 CFU/mL and 104000 CFU/mL and 136000 CFU/mL and 128000 CFU/mL
survival number of P. aeruginosa ([3]; 2×MIC, 30 min): 116000 CFU/mL and 154000 CFU/mL and 126000 CFU/mL and 130000 CFU/mL
survival number of P. aeruginosa ([3]; 2×MIC, 60 min): 92000 CFU/mL and 82000 CFU/mL and 70000 CFU/mL and 68000 CFU/mL
survival number of P. aeruginosa ([3]; 2×MIC, 240 min): 0 CFU/mL
survival number of S. aureus ([4]; 1×MIC, 30 min): 2000 CFU/mL and 4000 CFU/mL
survival number of S. aureus ([4]; 1×MIC, 180 min): 2000 CFU/mL and 4000 CFU/mL
survival number of S. aureus ([4]; 1×MIC, 360 min): 0 CFU/mL
survival number of S. aureus ([4]; 2×MIC, 300 min): 0 CFU/mL
survival number of S. aureus ([4]; 2×MIC, 360 min): 0 CFU/mL
removal effect on the formed biofilm ([5]; concentration 2 μM): 90.78% and 99.18% and 100%
removal effect on the formed biofilm ([5]; concentration 4 μM): 67.84% and 74.15% and 105.2663%
removal effect on the formed biofilm ([5]; concentration 8 μM): 86.98% and 97.37% and 78.85%
removal effect on the formed biofilm ([5]; concentration 16 μM): 64.53% and 107.33% and 74.22%
concentration at which more than 50% of the biofilm is removed ([5]; mixed biofilm): 32 µM
